# Measurements from PubChem BioAssay (NCI).
#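 Cells were grown in 96-well plates and exposed to each compound for 48 hours at five concentrations; endpoints were interpolated linearly between bracketing concentrations, or set to the highest concentration if not reached. Here, GI50 denotes the concentration required for 50% inhibition of growth. TGI is the concentration that stops growth completely.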
# What was measured:
# Assay in all cases: growth of human tumour cells (NCI), 48 h
# NCI-H23 lung = tested on: NCI-H23 lung
# IGROV1 ovarian = tested on: IGROV1 ovarian
# OVCAR-3 ovarian = tested on: OVCAR-3 ovarian
# K-562 leukemia = tested on: K-562 leukemia
# SK-MEL-5 melanoma = tested on: SK-MEL-5 melanoma
# HCT-116 colon = tested on: HCT-116 colon
# SK-MEL-2 melanoma = tested on: SK-MEL-2 melanoma
# SNB-19 CNS = tested on: SNB-19 CNS
# NCI-H460 lung = tested on: NCI-H460 lung
# NCI-H522 lung = tested on: NCI-H522 lung
# HOP-92 NSCLC = tested on: HOP-92 NSCLC
# SR leukemia = tested on: SR leukemia
# OVCAR-5 ovarian = tested on: OVCAR-5 ovarian
# MDA-MB-435 = tested on: MDA-MB-435
# 786-0 renal = tested on: 786-0 renal
# HCC-2998 colon = tested on: HCC-2998 colon
# TK-10 renal = tested on: TK-10 renal
# A498 renal = tested on: A498 renal
# HCT-15 colon = tested on: HCT-15 colon
# BT-549 breast = tested on: BT-549 breast
# ACHN renal = tested on: ACHN renal
# RXF 393 renal = tested on: RXF 393 renal
# SN12C renal = tested on: SN12C renal
# U251 CNS = tested on: U251 CNS
# A549 NSCLC = tested on: A549 NSCLC
# OVCAR-4 ovarian = tested on: OVCAR-4 ovarian
# SF-539 CNS = tested on: SF-539 CNS
# HOP-62 NSCLC = tested on: HOP-62 NSCLC
# PC-3 prostate = tested on: PC-3 prostate
# MDA-MB-231 breast = tested on: MDA-MB-231 breast
# UACC-257 melanoma = tested on: UACC-257 melanoma
# NCI/ADR-RES ovarian = tested on: NCI/ADR-RES ovarian
# HS 578T breast = tested on: HS 578T breast
# SK-MEL-28 melanoma = tested on: SK-MEL-28 melanoma
# MCF7 breast = tested on: MCF7 breast
# UO-31 renal = tested on: UO-31 renal
# T-47D breast = tested on: T-47D breast
# CAKI-1 renal = tested on: CAKI-1 renal
# SF-268 CNS = tested on: SF-268 CNS
# HL-60(TB) leukemia = tested on: HL-60(TB) leukemia
# UACC-62 melanoma = tested on: UACC-62 melanoma
# RPMI-8226 leukemia = tested on: RPMI-8226 leukemia
# KM12 colon = tested on: KM12 colon
# M14 melanoma = tested on: M14 melanoma
# MOLT-4 leukemia = tested on: MOLT-4 leukemia
# SW-620 colon = tested on: SW-620 colon
# HT29 colon = tested on: HT29 colon
# COLO 205 colon = tested on: COLO 205 colon
# LOX IMVI melanoma = tested on: LOX IMVI melanoma
# SK-OV-3 ovarian = tested on: SK-OV-3 ovarian
# OVCAR-8 ovarian = tested on: OVCAR-8 ovarian
# MALME-3M melanoma = tested on: MALME-3M melanoma
smiles,measurement,setting,value
COc1cc(C(=O)/C=C/c2cc(-c3cc(OC)c(OC)c(OC)c3)n[nH]2)cc(OC)c1OC,GI50,NCI-H23 lung,3.04 µM
same,TGI,NCI-H23 lung,9.9 µM
same,GI50,IGROV1 ovarian,3.14 µM
same,TGI,IGROV1 ovarian,10.2 µM
same,GI50,OVCAR-3 ovarian,1.75 µM
same,TGI,OVCAR-3 ovarian,3.18 µM
same,GI50,K-562 leukemia,2.96 µM
same,TGI,K-562 leukemia,> 100 µM
same,GI50,SK-MEL-5 melanoma,1.57 µM
same,TGI,SK-MEL-5 melanoma,2.94 µM
same,GI50,HCT-116 colon,1.31 µM
same,TGI,HCT-116 colon,2.59 µM
same,GI50,SK-MEL-2 melanoma,1.96 µM
same,TGI,SK-MEL-2 melanoma,4.04 µM
same,GI50,SNB-19 CNS,1.66 µM
same,TGI,SNB-19 CNS,3.69 µM
same,GI50,NCI-H460 lung,1.89 µM
same,TGI,NCI-H460 lung,4.33 µM
same,GI50,NCI-H522 lung,0.521 µM
same,TGI,NCI-H522 lung,1.7 µM
same,GI50,HOP-92 NSCLC,0.186 µM
same,TGI,HOP-92 NSCLC,1.02 µM
same,GI50,SR leukemia,0.398 µM
same,TGI,SR leukemia,> 100 µM
same,GI50,OVCAR-5 ovarian,1.64 µM
same,TGI,OVCAR-5 ovarian,3.12 µM
same,GI50,MDA-MB-435,1.49 µM
same,TGI,MDA-MB-435,2.95 µM
same,GI50,786-0 renal,1.56 µM
same,TGI,786-0 renal,3.25 µM
same,GI50,HCC-2998 colon,1.83 µM
same,TGI,HCC-2998 colon,3.39 µM
same,GI50,TK-10 renal,1.46 µM
same,TGI,TK-10 renal,2.8 µM
same,GI50,A498 renal,1.61 µM
same,TGI,A498 renal,3.59 µM
same,GI50,HCT-15 colon,1.5 µM
same,TGI,HCT-15 colon,3.29 µM
same,GI50,BT-549 breast,1.57 µM
same,TGI,BT-549 breast,2.96 µM
same,GI50,ACHN renal,1.62 µM
same,TGI,ACHN renal,3.01 µM
same,GI50,RXF 393 renal,1.26 µM
same,TGI,RXF 393 renal,2.67 µM
same,GI50,SN12C renal,1.47 µM
same,TGI,SN12C renal,2.97 µM
same,GI50,U251 CNS,1.54 µM
same,TGI,U251 CNS,2.96 µM
same,GI50,A549 NSCLC,2.72 µM
same,TGI,A549 NSCLC,12.1 µM
same,GI50,OVCAR-4 ovarian,1.45 µM
same,TGI,OVCAR-4 ovarian,2.76 µM
same,GI50,SF-539 CNS,1.29 µM
same,TGI,SF-539 CNS,2.83 µM
same,GI50,HOP-62 NSCLC,1.46 µM
same,TGI,HOP-62 NSCLC,2.89 µM
same,GI50,PC-3 prostate,1.47 µM
same,TGI,PC-3 prostate,3.29 µM
same,GI50,MDA-MB-231 breast,1.52 µM
same,TGI,MDA-MB-231 breast,3.8 µM
same,GI50,UACC-257 melanoma,1.57 µM
same,TGI,UACC-257 melanoma,2.99 µM
same,GI50,NCI/ADR-RES ovarian,3.47 µM
same,TGI,NCI/ADR-RES ovarian,21.4 µM
same,GI50,HS 578T breast,2.68 µM
same,TGI,HS 578T breast,53.9 µM
same,GI50,SK-MEL-28 melanoma,1.82 µM
same,TGI,SK-MEL-28 melanoma,3.33 µM
same,GI50,MCF7 breast,0.646 µM
same,TGI,MCF7 breast,2.07 µM
same,GI50,UO-31 renal,1.19 µM
same,TGI,UO-31 renal,2.48 µM
same,GI50,T-47D breast,1.13 µM
same,TGI,T-47D breast,2.57 µM
same,GI50,CAKI-1 renal,2.58 µM
same,TGI,CAKI-1 renal,10.9 µM
same,GI50,SF-268 CNS,1.94 µM
same,TGI,SF-268 CNS,4.58 µM
same,GI50,HL-60(TB) leukemia,1.93 µM
same,TGI,HL-60(TB) leukemia,5.52 µM
same,GI50,UACC-62 melanoma,1.78 µM
same,TGI,UACC-62 melanoma,3.68 µM
same,GI50,RPMI-8226 leukemia,0.318 µM
same,TGI,RPMI-8226 leukemia,2.06 µM
same,GI50,KM12 colon,1.49 µM
same,TGI,KM12 colon,2.93 µM
same,GI50,M14 melanoma,1.79 µM
same,TGI,M14 melanoma,3.32 µM
same,GI50,MOLT-4 leukemia,2.32 µM
same,TGI,MOLT-4 leukemia,8.95 µM
same,GI50,SW-620 colon,1.59 µM
same,TGI,SW-620 colon,3.08 µM
same,GI50,HT29 colon,1.79 µM
same,TGI,HT29 colon,3.37 µM
same,GI50,COLO 205 colon,1.75 µM
same,TGI,COLO 205 colon,3.13 µM
same,GI50,LOX IMVI melanoma,1.52 µM
same,TGI,LOX IMVI melanoma,2.91 µM
same,GI50,SK-OV-3 ovarian,3.2 µM
same,TGI,SK-OV-3 ovarian,11.1 µM
same,GI50,OVCAR-8 ovarian,1.58 µM
same,TGI,OVCAR-8 ovarian,3.28 µM
same,GI50,MALME-3M melanoma,1.86 µM
same,TGI,MALME-3M melanoma,4.09 µM
